# Measured values: EPA's ToxRefDB 2
# Experiments:
# rat [1] = settings: Fertility (Segment I), sprague dawley, Oral, Gavage/Intubation, dose end: 49 day
# dog = settings: Sub-acute repeat dose toxicity; beagle; Oral; Capsule; dose end: 1 month; group: systemic; systemic / clinical chemistry / glucose / glucose + systemic / in life observation / body weight / body weight + systemic / in life …
# rat [2] = settings: Fertility (Segment I), sprague dawley, Oral, Gavage/Intubation, dose end: 7 GD
# rat [3] = settings: Prenatal developmental toxicity study, sprague dawley, Oral, Gavage/Intubation, dose end: 17 GD, group: maternal
# rabbit [4] = settings: Prenatal developmental toxicity study, new zealand white, Oral, Gavage/Intubation, dose end: 19 GD
# mouse [5] = settings: Sub-acute repeat dose toxicity, cd1, Oral, Gavage/Intubation, dose end: 4 week, group: systemic
# rat [6] = settings: Chronic toxicity; sprague dawley; Oral; Gavage/Intubation; dose end: 6 month; group: systemic; systemic / clinical chemistry / alanine aminotransferase (alt/sgpt) / alanine aminotransferase (alt/sgpt) + systemic / clinical chemistry / …
# rabbit [7] = settings: Prenatal developmental toxicity study; new zealand white; Oral; Gavage/Intubation; dose end: 19 GD; group: maternal; systemic / in life observation / body weight / body weight gain + systemic / in life observation / clinical signs / anogenital staining + …
# rat [8] = settings: Sub-acute repeat dose toxicity, Oral, Gavage/Intubation, dose end: 7 day, group: systemic
# rabbit [9] = settings: Sub-acute repeat dose toxicity, Oral, Gavage/Intubation, dose end: 7 day, group: systemic
# mouse [10] = settings: Sub-acute repeat dose toxicity; Oral; Feed; dose end: 14 day; group: systemic; systemic / in life observation / clinical signs / [other] + systemic / in life observation / clinical signs / anogenital staining + systemic…
# mouse [11] = settings: Sub-acute repeat dose toxicity, Oral, Gavage/Intubation, dose end: 7 day, group: systemic
# mouse [12] = settings: Fertility (Segment I), Oral, Gavage/Intubation, dose end: 1 generation
# rat [13] = settings: Sub-acute repeat dose toxicity, Oral, Gavage/Intubation, dose end: 7 day, group: systemic; remark: listed apart in the source
# rat [14] = settings: Sub-acute repeat dose toxicity; Injection; Intravenous; dose end: 7 day; group: systemic; systemic / hematology / platelet / platelet + systemic / organ weight / liver / absolute + systemic / pathology microscopic / liver / …
# rabbit [15] = settings: Prenatal developmental toxicity study, Oral, Gavage/Intubation, dose end: 19 GD
# rat [16] = settings: Sub-acute repeat dose toxicity; Oral; Gavage/Intubation; dose end: 7 day; group: systemic; systemic / clinical chemistry / globulins / globulins + systemic / clinical chemistry / bilirubin / total bilirubin + systemic / organ …
# mouse [17] = settings: Chronic toxicity, Oral, Gavage/Intubation, dose end: 186 day, group: systemic
# [18] = group: maternal, reproductive / reproductive performance / fertility / fertility + reproductive / reproductive performance / pregnancy index / pregnancy …
# [19] = group: parental, systemic / in life observation / body weight / body weight + systemic / in life observation / body weight / body weight gain + systemic / in…
# [20] = group: maternal, reproductive / offspring survival early / litter viability other / total litter loss + reproductive / reproductive performance / estrous …
# [21] = group: maternal, reproductive / reproductive performance / fertility / fertility + reproductive / reproductive performance / precoital interval / precoital …
# [22] = group: parental, systemic / in life observation / clinical signs / alopecia + systemic / in life observation / body weight / body weight gain + systemic / in…
# [23] = reproductive / reproductive performance / implantations / implantations + reproductive / reproductive performance / postimplantation loss / …
# [24] = systemic / in life observation / body weight / body weight + systemic / in life observation / body weight / body weight gain + systemic / in…
# [25] = group: developmental, systemic / in life observation / body weight / fetal weight
# [26] = group: maternal, systemic / in life observation / body weight / body weight gain + systemic / in life observation / clinical signs / defecation + systemic / …
# [27] = systemic / in life observation / clinical signs / alopecia + systemic / in life observation / clinical signs / scabbing + systemic / organ …
# [28] = systemic / organ weight / liver / absolute + systemic / organ weight / liver / relative to body weight + systemic / pathology gross / lung…
# [29] = systemic / pathology microscopic / adrenal gland / hypertrophy + systemic / pathology microscopic / kidney / regeneration + systemic / …
# [30] = systemic / in life observation / body weight / body weight + systemic / in life observation / clinical signs / tachypnea + systemic / in …
# [31] = systemic / clinical chemistry / cholesterol / cholesterol + systemic / pathology microscopic / liver / vacuolization + systemic / clinical …
# [32] = group: maternal, reproductive / reproductive performance / mating / mating + reproductive / reproductive performance / precoital interval / precoital …
# [33] = group: parental, systemic / in life observation / body weight / body weight gain + systemic / in life observation / food consumption / food consumption + …
# [34] = systemic / clinical chemistry / cholesterol / cholesterol + systemic / clinical chemistry / protein / protein + systemic / hematology / …
# [35] = systemic / clinical chemistry / cholesterol / cholesterol + systemic / hematology / eosinophils / eosinophils + systemic / clinical …
# [36] = systemic / clinical chemistry / alkaline phosphatase (alp/alk) / alkaline phosphatase (alp/alk) + systemic / clinical chemistry / …
# [37] = systemic / clinical chemistry / bilirubin / total bilirubin + systemic / in life observation / body weight / body weight + systemic / organ …
smiles,measurement,setting,value
CCc1c(C(=O)NN2CCCCC2)nn(-c2ccc(Cl)cc2Cl)c1-c1ccc(Br)cc1 [Surinabant],LEL,rat [1]; [18],300 mg/kg/day
same,LOAEL,rat [1]; [18],300 mg/kg/day
same,NEL,rat [1]; [18],100 mg/kg/day
same,NOAEL,rat [1]; [18],100 mg/kg/day
same,LEL,rat [1]; [19],100 mg/kg/day
same,NEL,rat [1]; [19],< 100 mg/kg/day
same,LOAEL,"rat [1]; group: parental, systemic / pathology gross / sperm measure / sperm count",300 mg/kg/day
same,NOAEL,"rat [1]; group: parental, systemic / pathology gross / sperm measure / sperm count + systemic / in life observation / body weight / body weight + systemic / in life …",100 mg/kg/day
same,LEL,dog,10 mg/kg/day
same,LOAEL,dog,10 mg/kg/day
same,NEL,dog,< 10 mg/kg/day
same,NOAEL,dog,< 10 mg/kg/day
same,LOAEL,rat [2]; [20],> 1000 mg/kg/day
same,NOAEL,rat [2]; [20],≥ 1000 mg/kg/day
same,LEL,rat [2]; [21],10 mg/kg/day
same,NEL,rat [2]; [21],< 10 mg/kg/day
same,LEL,rat [2]; [22],10 mg/kg/day
same,LOAEL,rat [2]; [22],> 1000 mg/kg/day
same,NEL,rat [2]; [22],< 10 mg/kg/day
same,NOAEL,rat [2]; [22],≥ 1000 mg/kg/day
same,LOAEL,rat [3]; [23],> 100 mg/kg/day
same,NOAEL,rat [3]; [23],≥ 100 mg/kg/day
same,LEL,rat [3]; [24],10 mg/kg/day
same,NEL,rat [3]; [24],< 10 mg/kg/day
same,LEL,rabbit [4]; [25],1 mg/kg/day
same,LOAEL,rabbit [4]; [25],> 20 mg/kg/day
same,NEL,rabbit [4]; [25],< 1 mg/kg/day
same,NOAEL,rabbit [4]; [25],≥ 20 mg/kg/day
same,LEL,rabbit [4]; [26],1 mg/kg/day
same,LOAEL,rabbit [4]; [26],> 20 mg/kg/day
same,NEL,rabbit [4]; [26],< 1 mg/kg/day
same,NOAEL,rabbit [4]; [26],≥ 20 mg/kg/day
same,LOAEL,mouse [5]; [27],> 4000 mg/kg/day
same,NOAEL,mouse [5]; [27],≥ 4000 mg/kg/day
same,LEL,mouse [5]; [28],1000 mg/kg/day
same,NEL,mouse [5]; [28],< 1000 mg/kg/day
same,LEL,rat [6],30 mg/kg/day
same,LOAEL,rat [6],> 60 mg/kg/day
same,NEL,rat [6],< 30 mg/kg/day
same,NOAEL,rat [6],≥ 60 mg/kg/day
same,LEL,rabbit [7],0.5 mg/kg/day
same,LOAEL,rabbit [7],2 mg/kg/day
same,NEL,rabbit [7],< 0.5 mg/kg/day
same,NOAEL,rabbit [7],0.5 mg/kg/day
CCc1nn(CCO)c(CC)c1Oc1cc(C#N)cc(C#N)c1 [Lersivirine],LOAEL,rat [8]; [29],> 150 mg/kg/day
same,NOAEL,rat [8]; [29],≥ 150 mg/kg/day
same,NEL,rat [8]; systemic / pathology microscopic / kidney / regeneration + systemic / pathology microscopic / adrenal gland / vacuolization + systemic / …,< 35 mg/kg/day
same,LOAEL,rabbit [9]; [30],> 500 mg/kg/day
same,NEL,rabbit [9]; [30],20 mg/kg/day
same,NOAEL,rabbit [9]; [30],≥ 500 mg/kg/day
same,LEL,rabbit [9]; systemic / in life observation / clinical signs / tachypnea + systemic / in life observation / food consumption / food consumption,200 mg/kg/day
same,LOAEL,mouse [10],> 3000 mg/kg/day
same,NEL,mouse [10],750 mg/kg/day
same,NOAEL,mouse [10],≥ 3000 mg/kg/day
same,LOAEL,mouse [11]; [31],> 250 mg/kg/day
same,NOAEL,mouse [11]; [31],≥ 250 mg/kg/day
same,NEL,mouse [11]; systemic / organ weight / liver / absolute + systemic / pathology microscopic / liver / hypertrophy,< 35 mg/kg/day
same,LEL,mouse [12]; [32],700 mg/kg/day
same,LOAEL,mouse [12]; [32],> 700 mg/kg/day
same,NEL,mouse [12]; [32],200 mg/kg/day
same,NOAEL,mouse [12]; [32],≥ 700 mg/kg/day
same,LEL,mouse [12]; [33],700 mg/kg/day
same,LOAEL,mouse [12]; [33],> 700 mg/kg/day
same,NEL,mouse [12]; [33],200 mg/kg/day
same,NOAEL,mouse [12]; [33],≥ 700 mg/kg/day
same,LEL,rat [13]; [34],70 mg/kg/day
same,NEL,rat [13]; [34],< 70 mg/kg/day
same,LOAEL,rat [13]; [35],> 1000 mg/kg/day
same,NOAEL,rat [13]; [35],≥ 1000 mg/kg/day
same,LOAEL,rat [14],> 35 mg/kg/day
same,NEL,rat [14],< 35 mg/kg/day
same,NOAEL,rat [14],≥ 35 mg/kg/day
same,NEL,"rabbit [15]; group: developmental, developmental / developmental malformation / bone / absent + developmental / developmental malformation / bone / fused",250 mg/kg/day
same,NEL,"rabbit [15]; group: maternal, reproductive / reproductive performance / postimplantation loss / postimplantation loss",< 100 mg/kg/day
same,LOAEL,rat [16],> 150 mg/kg/day
same,NEL,rat [16],< 150 mg/kg/day
same,NOAEL,rat [16],≥ 150 mg/kg/day
same,LEL,mouse [17]; [36],70 mg/kg/day
same,NEL,mouse [17]; [36],< 70 mg/kg/day
same,LOAEL,mouse [17]; [37],> 700 mg/kg/day
same,NOAEL,mouse [17]; [37],≥ 700 mg/kg/day
